# According to article PMC12663734, “Sulfonamine-containing aurone derivatives act as inhibitors of intercellular movement of potato virus Y” (iScience, 2025):
# Key:
# PVY [1] = test: Anti-PVY inactivating activity, half-leaf method; details: Potato virus Y, in Chenopodium amaranticolor
# Procedure: (§1) Owing to its non-host resistance to PVY, Chenopodium amaranticolor develops a hypersensitive response (HR) within 48–72 hours post-inoculation, producing sharply delimited chlorotic or necrotic local lesions on the inoculated leaves. The number of lesions correlates linearly and positively with virus titre, thereby serving as a quantitative indicator of viral virulence and of the inactivating efficacy of test compounds. The PVY viral extract was rubbed onto the surface of Nicotiana tabacum K326 leaves. After the characteristic symptoms of leaf wrinkling and inward curling appeared, the leaves were harvested and stored at -80°C, then purified according to previously reported methods.[50]^,[51]^,[52] Host leaves were ground to a fine powder in liquid nitrogen, followed by homogenization on ice in 0.5 M phosphate buffer. An equal volume of chloroform:n-butanol (1:1, v/v) corresponding to 10% of the total buffer volume was added, and the mixture was further homogenized on ice. After centrifugation at 10,000g for 20 minutes (4°C), the supernatant was collected as the crude PVY extract. Using 4–5-leaf-stage Chenopodium amaranticolor maintained under optimal growth conditions, a bioassay was conducted with two plants per treatment to systematically evaluate the curative, protective, and inactivating efficacy of the target compound against PVY.[53] […] Each compound was evaluated in three replicates, and the average value was calculated.
# Two different dilutions of the virus solution (600-fold and 1200-fold) were prepared, along with a 1000 μg/mL drug solution. The drug solution was mixed with the 600-fold diluted virus solution on ice and incubated for 30 minutes. During the incubation period, the left side of the leaves was treated with a 1200-fold diluted virus solution. After the incubation was completed, the mixed system of drug and virus is inoculated on the right side of the leaf. After waiting for the infection to be completed, the carborundum on the leaf surface was washed off with running water, and the plants were then cultivated in a greenhouse. The number of dead spots on the leaves was counted after approximately 5 days.
# PVY [2] = test: Anti-PVY curative activity, half-leaf method; details: Potato virus Y, in Chenopodium amaranticolor, 120 h, read-out: Curative effect (%)
# Procedure: as §1
# Chenopodium amaranticolor was selected as the dead spot host. Excess leaves were first trimmed off, and a uniform layer of carborundum was applied to the leaf surface. The leaves were then inoculated by rubbing with a 1200-fold diluted virus solution. After more than an hour, the carborundum on the leaf surface was washed off with running water, and a 500 μg/mL drug solution was prepared. […] The treated plants were cultivated in a greenhouse for observation, and the number of dead spots on the leaves was counted after approximately 5 days.
# PVY CP^P154A = molecular target: T1, PVY CP^P154A (Potato virus Y, UniProt P18247, P2950A); test: MST binding to mutant PVY CP^P154A
# T1 construct: 6xHis tag (within the N-terminal pET-32a(+) fusion leader; the Trx and S-tag parts are inferred from the vector and the ~50 kDa band) (N, cleaved yes); made in house; host or cells: Escherichia coli BL21 (DE3) pLysS
# T1 sequence (P18247 2797-3063 P2950A): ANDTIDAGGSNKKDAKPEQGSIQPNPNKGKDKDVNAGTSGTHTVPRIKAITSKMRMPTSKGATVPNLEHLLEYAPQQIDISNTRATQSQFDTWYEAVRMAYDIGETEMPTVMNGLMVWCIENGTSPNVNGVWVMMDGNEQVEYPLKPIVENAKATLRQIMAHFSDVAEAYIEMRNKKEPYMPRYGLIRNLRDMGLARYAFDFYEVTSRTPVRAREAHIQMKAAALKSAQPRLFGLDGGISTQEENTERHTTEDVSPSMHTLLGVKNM
# PVY CP = molecular target: T2, PVY CP (Potato virus Y, UniProt P18247); test: biochemical; format: binding
# T2 construct: 6xHis tag (within the N-terminal pET-32a(+) fusion leader; the Trx and S-tag parts are inferred from the vector and the ~50 kDa band) (N, cleaved yes); made in house; host or cells: Escherichia coli BL21 (DE3) pLysS
# T2 sequence (P18247 2797-3063): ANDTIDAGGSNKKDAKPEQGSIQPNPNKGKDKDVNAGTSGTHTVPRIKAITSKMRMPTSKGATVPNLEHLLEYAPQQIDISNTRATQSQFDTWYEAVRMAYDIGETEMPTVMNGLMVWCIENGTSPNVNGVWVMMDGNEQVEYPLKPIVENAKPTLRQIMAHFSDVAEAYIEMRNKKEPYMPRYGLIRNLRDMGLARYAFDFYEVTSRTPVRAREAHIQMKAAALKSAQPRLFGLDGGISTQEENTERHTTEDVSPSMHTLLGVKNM
# PVY-GFP = test: Systemic infection of PVY-GFP in N. benthamiana (GFP fluorescence, RT-qPCR); format: in vivo, potato virus Y; details: 500 μg/mL, seven dpi
# Procedure: To investigate the effect of compound D13 on PVY system infection, we inoculated Nicotiana benthamiana (N. benthamiana) leaves with Agrobacterium carrying the wild-type PVY-GFP. After 24 h, the infiltrated leaves were treated with dimethyl sulfoxide (DMSO) as the negative control group and 500 μg/mL D13 as the treatment group. […] To further confirm reproducibility, an additional independent biological replicate (Figure S4) was uploaded, and the observed trend is consistent with the primary dataset.
# Wild-type or mutant viral plasmids were introduced into agrobacterium tumefaciens strain GV3101. Bacterial cultures were grown overnight at 28°C with shaking at 220 rpm, harvested by centrifugation at 8 minutes when OD600 reached 0.6–0.8, and the supernatant was discarded. […] At 7 dpi, GFP fluorescence in leaves was visualized and photographed under 365 nm excitation using a LUYOR handheld UV lamp (LUYOR-3415RG, Luyor Instrument, Shanghai, China). […]
# The samples of N. benthamiana infected with Agrobacterium were taken out from the -80°C freezer, small steel beads were added, and they were ground into fine powder with liquid nitrogen to ensure that the cells were completely broken and the nucleic acid components in the cells were released. […] The primers used is recorded in Supporting Information.
# PVY [3] = test: Anti-PVY protective activity, half-leaf method; details: Potato virus Y, in Chenopodium amaranticolor, 120 h, read-out: Protective effect (%)
# Procedure: as §1
# In contrast to the antiviral therapeutic activity, the leaves were first treated with the drug solution. A 500 μg/mL drug solution was applied to the right side of the leaves, with the left side serving as a control and treated with a 1% Tween 80 solution. After the leaves had dried under natural conditions, they were placed in a greenhouse for 24 hours before inoculation by rubbing with carborundum, following the same procedures as those for curative activity. After treatment, the plants were maintained in a greenhouse, and the number of local lesions on the inoculated leaves was recorded approximately 5 days.
structure (smiles),measurement,setting,value
"COc1ccc(/C=C2\Oc3cc(OCC(=O)NS(=O)(=O)c4ccc(Br)cc4)ccc3C2=O)cc1 [D13, (Z)-N-((4-bromophenyl)sulfonyl)-2-((2-(4-methoxybenzylidene)-3-oxo-2,3-dihydrobenzofuran-6-yl)oxy)acetamide]",pest or weed control at 500 µg/mL,"PVY [1]; 120 h, read-out: Inactivating effect (%), 500 μg/mL, host Chenopodium amaranticolor, average of three replicates",60 to 80%
same,EC50,PVY [1]; read-out: Inactivating effect EC50,79.5 ± 3.3 mg/L
same,pest or weed control at 500 µg/mL,PVY [2],53.2 ± 1.6%
same,Kd,PVY CP^P154A,284 µM
same,Kd,PVY CP,16 µM
same,accumulation level of PVY RNA in systemic leaves vs DMSO control (100%),PVY-GFP; RT-qPCR,39.8%
same,green fluorescence in stems and young top leaves,PVY-GFP; UV illumination,almost unobservable
same,pest or weed control at 500 µg/mL,PVY [3],47.7 ± 1.4%
